Where a SMILES comes first, the peptide text is derived from it. Bridges are numbered along the chain shown (N, C = ends).
Assays:
[1] = system: baculovirus expressing luciferase under the control of the CMV promoter; format: cell-based; conditions: luciferase reporter gene expression in HEK293 cells transduced with baculovirus-luc, MOI 5, 24 h post-infection; 1:3 peptide dilution series; non-linear regression; n = 8
Protocol: A baculovirus expressing luciferase under the control of the CMV promoter has been described previously. HEK293 cells were seeded at a density of 2 × 10^4 cells/100 µL per well in 96-well plates (Sarstedt, Germany). On the next day, cells were treated with a 1:3 dilution series of peptides and, without further pre-incubation, subsequently infected with baculovirus–luc at a multiplicity of infection (MOI) of 5. Cells were lysed 24 h post-infection using 20 µL Cell Culture Lysis Reagent (Promega, Mannheim, Germany). From the lysates, 10 µL was transferred to white 96-well plates, and luciferase was recorded using a luciferase assay system and a GloMax®-Multi Detection System (Promega, Mannheim, Germany).

[2] = system: MCMV strain delm157-luc rep; format: cell-based, mouse cytomegalovirus; conditions: luciferase reporter gene expression in NIH/3T3 cells infected with replication-competent MCMV, MOI 0.5, 72 h post-infection; 1:3 dilution series; non-linear regression; n = 9
Protocol: NIH/3T3 cells were seeded at a density of 2 × 10^4 cells/100 µL per well in a 96-well plate (Sarstedt, Germany) and allowed to attach overnight. On the next day, cells were treated with a 1:3 dilutions series of peptides and, without further pre-incubation, subsequently infected with the MCMV strain delm157-luc rep. The MCMV stock was prepared and quantified as previously described. The virus (MOI 0.5 for luc assays; for other assays, see the specific descriptions) was adsorbed to cells with the aid of centrifugal enhancement twice at 800× g for 15 min at room temperature and incubated at 37 °C for the indicated times. For the luciferase assays, the infected cells were lysed 72 h post-infection using 20 µL Cell Culture Lysis Reagent (Promega, Mannheim, Germany). From the lysates, 10 µL was transferred to white 96-well plates, and luciferase was recorded using a Luciferase Assay System and a GloMax®-Multi Detection System (Promega, Mannheim, Germany).

[3] = system: human red blood cells (RBCs); test: Hemolysis assay with red blood cells; format: cell-based; conditions: 1 h at 37 °C; for hemolysis of human RBCs: peptide dilutions in PBS or PBS + 10% donor serum, concentrations < 20 µM (1:2 dilutions), OD 450 nm of supernatants, n = 6; for swelling of RBCs (pellet size after centrifugation): peptide dilutions prepared in PBS, up to 20 µM
Protocol: Blood from healthy volunteers was collected by venipuncture (Greiner Bio-One, Kremsmünster, Austria) into K2E K2EDTA VacuetteTM tubes (Greiner Bio-One, Kremsmünster, Austria) with 4 mL blood. The assay for hemolysis was adapted from Sæbo et al.. Blood was centrifuged at 1000× g for 10 min, and plasma was kept for further use. Red blood cells were then resuspended in 10 mL PBS and centrifuged again at 1000× g for a total of three times. Cells were then counted using a hemocytometer and seeded at a cell number of 1 × 10^7 cells/100 µL PBS per well in conical 96-well plates (ThermoFisher, Darmstadt, Germany). Next, 1:2 peptide dilutions starting from 40 µM either in PBS or 10% donor serum were prepared, and 100 µL was added to 100 µL of RBC. Plates were then incubated for one hour at 37 °C. As the positive control, three wells with 100 µL RBCs were treated with 100 µL PBS + 0.5% Triton X-100. After incubation, plates were centrifuged at 1000× g for 5 min and supernatants were transferred to flat 96-well plates. Optical density (OD) was determined at 450 nm using a GloMax®-Multi Detection System (Promega, Mannheim, Germany). Images from RBCs from light microscopy and centrifuged plates were taken using an iPhone 12 mini.

HEK293 cells = test: Cell viability assay (CellTiter-Blue) in HEK293 cells; format: cell-based; conditions: 72 h at 37 °C, 3-fold dilution series starting with 20 µM, triplicate, non-linear regression (curve fit)
Protocol: HEK293 cells were seeded at a density of 2.5 × 10^3 cells/100 µL per well in a 96-well plate (Sarstedt, Germany). In addition, a serial 1:2 dilution of the cell suspension was added to each plate to generate a standard curve. On the next day, cells were treated with serial 1:3 peptide dilutions in triplicate and incubated for 72 h at 37 °C. Then, 20 µL of CellTiter-Blue® Cell Viability Assay (Promega, Mannheim, Germany) was added to each well and incubated at 37 °C for a further 1–2 h. Fluorescence was recorded using a GloMax®-Multi Detection System (Promega, Mannheim, Germany). The percentage of viable cells was calculated from the cell dilution series from each plate by linear regression analysis. The selectivity index was calculated using the following formula: SI = CC50/IC50.
Figure S1. Cell viability assay in HEK293 cells in the presence of peptides. Cells were incubated with 3 -fold dilution series of peptides starting with a concentration of 20 µM for 72 hours and measured using the Cell Titer Blue assay. Curve fitting of % viable cells of untrea ted control was performed using Graph Pad Prism softwar e.
(1 picture or pasted object on this page, not shown here)

Structure (SMILES)	IC50 [1]	IC50 [2]	hemolysis of human RBCs [3]	swelling of RBCs (pellet size after centrifugation) [3]	HEK293 CC50 (HEK293 cells)
CC(C)C[C@@H]1NC(=O)[C@@H](NC(=O)[C@H](CCC(N)=O)NC(=O)[C@@H]2CCCN2C(=O)[C@@H]2CCCN2C(=O)[C@H](CCCNC(=N)N)NC(=O)[C@H](CCCNC(=N)N)NC(=O)[C@H](CCCNC(=N)N)NC(=O)[C@H](CCC(N)=O)NC(=O)[C@H](CCCNC(=N)N)NC(=O)[C@H](CCCNC(=N)N)NC(=O)[C@H](CCCCN)NC(=O)[C@H](CCCCN)NC(=O)[C@H](CCCNC(=N)N)NC(=O)CN)CSSC[C@@H](C(=O)N[C@@H](Cc2ccccc2)C(=O)O)NC(=O)[C@H](C)NC(=O)[C@H](Cc2ccc(O)cc2)NC(=O)[C@H](Cc2ccccc2)NC(=O)[C@H](C)NC1=O [C22del_cyc] (H-GRKKRRQRRRPPQCLAFYACF-OH; disulfide 14-20)	1.41 µM	12.2 µM	neither induce hemolysis	reduced swelling	
CSCC[C@H](NC(=O)[C@H](Cc1ccccc1)NC(=O)[C@H](CCCNC(=N)N)NC(=O)[C@H](C)NC(=O)[C@H](Cc1ccc(O)cc1)NC(=O)[C@H](Cc1ccccc1)NC(=O)[C@H](C)NC(=O)[C@H](CC(C)C)NC(=O)[C@H](C)NC(=O)[C@H](CCC(N)=O)NC(=O)[C@@H]1CCCN1C(=O)[C@@H]1CCCN1C(=O)[C@H](CCCNC(=N)N)NC(=O)[C@H](CCCNC(=N)N)NC(=O)[C@H](CCCNC(=N)N)NC(=O)[C@H](CCC(N)=O)NC(=O)[C@H](CCCNC(=N)N)NC(=O)[C@H](CCCNC(=N)N)NC(=O)[C@H](CCCCN)NC(=O)[C@H](CCCCN)NC(=O)[C@H](CCCNC(=N)N)NC(=O)CN)C(=O)O [C14A, C20R, C22M] (H-GRKKRRQRRRPPQALAFYARFM-OH)	0.58 µM	3.59 µM	neither induce hemolysis	reduced swelling	63 µM

Reference: publication PMC11477294, “In Vitro Profiling of the Antiviral Peptide TAT-I24” (International Journal of Molecular Sciences, 2024)
